Experimental data: PubChem BioAssay AID1259407 (Chemical Carcinogenesis Research Information System (CCRIS), 2018)
Calls of active or inactive are those of the source. No rule for the calls is given here.

System: CCRIS mutagenicity, Ames/micronucleus/aberration tests
Experiment: CCRIS mutagenicity studies
Conditions: Test System: AMES SALMONELLA TYPHIMURIUM

Measured: mutagenic call

CCNc1nc(Cl)nc(NC(C)C)n1
inactive: Strain/Indicator: TA97, Metabolic Activation: HAMSTER, LIVER, S-9, AROCLOR 1254 (10%), Method: PREINCUBATION inactive; negative | Strain/Indicator: TA97, Metabolic Activation: HAMSTER, LIVER, S-9, AROCLOR 1254 (30%), Method: PREINCUBATION inactive; negative | Strain/Indicator: TA97, Metabolic Activation: NONE, Method: PREINCUBATION inactive; negative | Strain/Indicator: TA97, Metabolic Activation: NONE, Method: STANDARD PLATE inactive; negative | Strain/Indicator: TA97, Metabolic Activation: RAT, LIVER, S-9, AROCLOR 1254 (10%), Method: PREINCUBATION inactive; negative | Strain/Indicator: TA97, Metabolic Activation: RAT, LIVER, S-9, AROCLOR 1254 (30%), Method: PREINCUBATION inactive; negative | Strain/Indicator: TA97, Metabolic Activation: RAT, LIVER, S-9, AROCLOR 1254, Method: STANDARD PLATE inactive; negative | Strain/Indicator: TA97A, Metabolic Activation: NONE, Method: STANDARD PLATE inactive; negative | Strain/Indicator: TA97A, Metabolic Activation: RAT, LIVER, S-9, AROCLOR 1254, Method: STANDARD PLATE inactive; negative | Strain/Indicator: TA98, Metabolic Activation: HAMSTER, LIVER, S-9, AROCLOR 1254 (10%), Method: PREINCUBATION inactive; negative | Strain/Indicator: TA98, Metabolic Activation: HAMSTER, LIVER, S-9, AROCLOR 1254 (30%), Method: PREINCUBATION inactive; negative | Strain/Indicator: TA98, Metabolic Activation: NONE inactive; negative | Strain/Indicator: TA98, Metabolic Activation: NONE, Method: PREINCUBATION inactive; negative | Strain/Indicator: TA98, Metabolic Activation: PIG, LIVER, S-9, SODIUM PHENOBARBITAL AND BETA-NAPHTHOFLAVONE, Method: STANDARD PLATE inactive; negative | Strain/Indicator: TA98, Metabolic Activation: RAT, LIVER, S-9, AROCLOR 1254 inactive; negative | Strain/Indicator: TA98, Metabolic Activation: RAT, LIVER, S-9, AROCLOR 1254 (10%), Method: PREINCUBATION inactive; negative | Strain/Indicator: TA98, Metabolic Activation: RAT, LIVER, S-9, AROCLOR 1254 (30%), Method: PREINCUBATION inactive; negative | Strain/Indicator: TA98, Metabolic Activation: RAT, LIVER, S-9, AROCLOR 1254, Method: STANDARD PLATE inactive; negative | Strain/Indicator: TA98, Metabolic Activation: S-9, Method: STANDARD PLATE inactive; negative | Strain/Indicator: TA100, Metabolic Activation: HAMSTER, LIVER, S-9, AROCLOR 1254 (10%), Method: PREINCUBATION inactive; negative | Strain/Indicator: TA100, Metabolic Activation: HAMSTER, LIVER, S-9, AROCLOR 1254 (30%), Method: PREINCUBATION inactive; negative | Strain/Indicator: TA100, Metabolic Activation: NONE inactive; negative | Strain/Indicator: TA100, Metabolic Activation: NONE, Method: PREINCUBATION inactive; negative | Strain/Indicator: TA100, Metabolic Activation: PIG, LIVER, S-9, SODIUM PHENOBARBITAL AND BETA-NAPHTHOFLAVONE, Method: STANDARD PLATE inactive; negative | Strain/Indicator: TA100, Metabolic Activation: RAT, LIVER, S-9, AROCLOR 1254 inactive; negative | Strain/Indicator: TA100, Metabolic Activation: RAT, LIVER, S-9, AROCLOR 1254 (10%), Method: PREINCUBATION inactive; negative | Strain/Indicator: TA100, Metabolic Activation: RAT, LIVER, S-9, AROCLOR 1254 (30%), Method: PREINCUBATION inactive; negative | Strain/Indicator: TA100, Metabolic Activation: RAT, LIVER, S-9, AROCLOR 1254, Method: STANDARD PLATE inactive; negative | Strain/Indicator: TA100, Metabolic Activation: S-9, Method: STANDARD PLATE inactive; negative | Strain/Indicator: TA102, Metabolic Activation: NONE inactive; negative | Strain/Indicator: TA102, Metabolic Activation: NONE, Method: STANDARD PLATE inactive; negative | Strain/Indicator: TA102, Metabolic Activation: RAT, LIVER, S-9, AROCLOR 1254 inactive; negative | Strain/Indicator: TA102, Metabolic Activation: RAT, LIVER, S-9, AROCLOR 1254, Method: STANDARD PLATE inactive; negative | Strain/Indicator: TA1535, Metabolic Activation: HAMSTER, LIVER, S-9, AROCLOR 1254 (10%), Method: PREINCUBATION inactive; negative | Strain/Indicator: TA1535, Metabolic Activation: HAMSTER, LIVER, S-9, AROCLOR 1254 (30%), Method: PREINCUBATION inactive; negative | Strain/Indicator: TA1535, Metabolic Activation: NONE inactive; negative | Strain/Indicator: TA1535, Metabolic Activation: NONE, Method: PREINCUBATION inactive; negative | Strain/Indicator: TA1535, Metabolic Activation: NONE, Method: STANDARD PLATE inactive; negative | Strain/Indicator: TA1535, Metabolic Activation: RAT, LIVER, S-9, AROCLOR 1254 inactive; negative | Strain/Indicator: TA1535, Metabolic Activation: RAT, LIVER, S-9, AROCLOR 1254 (10%), Method: PREINCUBATION inactive; negative | Strain/Indicator: TA1535, Metabolic Activation: RAT, LIVER, S-9, AROCLOR 1254 (30%), Method: PREINCUBATION inactive; negative | Strain/Indicator: TA1535, Metabolic Activation: RAT, LIVER, S-9, AROCLOR 1254, Method: STANDARD PLATE inactive; negative | Strain/Indicator: TA1537, Metabolic Activation: HAMSTER, LIVER, S-9, AROCLOR 1254 (10%), Method: PREINCUBATION inactive; negative | Strain/Indicator: TA1537, Metabolic Activation: HAMSTER, LIVER, S-9, AROCLOR 1254 (30%), Method: PREINCUBATION inactive; negative | Strain/Indicator: TA1537, Metabolic Activation: NONE inactive; negative | Strain/Indicator: TA1537, Metabolic Activation: NONE, Method: PREINCUBATION inactive; negative | Strain/Indicator: TA1537, Metabolic Activation: NONE, Method: STANDARD PLATE inactive; negative | Strain/Indicator: TA1537, Metabolic Activation: RAT, LIVER, S-9, AROCLOR 1254 inactive; negative | Strain/Indicator: TA1537, Metabolic Activation: RAT, LIVER, S-9, AROCLOR 1254 (10%), Method: PREINCUBATION inactive; negative | Strain/Indicator: TA1537, Metabolic Activation: RAT, LIVER, S-9, AROCLOR 1254 (30%), Method: PREINCUBATION inactive; negative | Strain/Indicator: TA1537, Metabolic Activation: RAT, LIVER, S-9, AROCLOR 1254, Method: STANDARD PLATE inactive; negative | Strain/Indicator: TA1538, Metabolic Activation: NONE, Method: STANDARD PLATE inactive; negative | Strain/Indicator: TA1538, Metabolic Activation: RAT, LIVER, S-9, AROCLOR 1254, Method: STANDARD PLATE inactive; negative
